Experimental data as given in patent US9783511B2, “Carbamate benzoxazine propionic acids and acid derivatives for modulation of RORgamma activity and the treatment of disease” (Merck Sharp & Dohme Corp., priority 2013, dated 2017).

Target: human RORgammaT-Ligand Binding Domain (LBD) (Homo sapiens (Human), UniProt P51449)
Test: RORγ-Ligand Binding Domain TR-FRET Assay (co-activator peptide SRC1_2 recruitment)
Format: biochemical
Details: HIS-tagged RORγ-LBD 3 nM, biotinylated SRC1 LXXLL peptide 100 nM, incubated overnight at 4° C., 665 nm/615 nm ratio
Description: Activation of RORgammaT activity can be measured using, e.g., a biochemical TR-FRET assay. In such an assay, interaction of cofactor-derived peptides with human RORgammaT-Ligand Binding Domain (LBD) can be measured.
To identify novel antagonists of RORgammaT, an assay was developed which employs the interaction of RORgammaT with its co-activator peptide SRC1_2. […] The RORγ-Ligand Binding Domain TR-FRET Assay was run according to the following protocol.
HIS-tagged RORγ-LBD protein was recombinantly expressed in Escherichia coli. The RORγ-LBD protein was purified by Ni^2+-affinity resin. Purified protein was then diluted in assay buffer (50 mM Tris pH 7.0, 50 mM KCl, 1 mM EDTA, 0.1 mM DTT, 100 μg/mL bovine serum albumin, delipidated) to obtain a RORγ-LBD final concentration of 3 nM.
Compounds to be tested were injected to the 384-well assay plate using Acoustic Droplet Ejection technology by Echo 550 liquid handler (Labcyte, CA).

Sequence of human RORgammaT-Ligand Binding Domain (LBD) (P51449 269-508): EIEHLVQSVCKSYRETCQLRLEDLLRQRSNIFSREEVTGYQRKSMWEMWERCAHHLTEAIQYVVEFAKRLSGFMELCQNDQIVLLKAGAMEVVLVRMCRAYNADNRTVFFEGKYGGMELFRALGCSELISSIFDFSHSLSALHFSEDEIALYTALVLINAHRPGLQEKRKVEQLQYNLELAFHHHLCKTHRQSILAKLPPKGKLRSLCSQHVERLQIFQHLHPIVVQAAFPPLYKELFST

Compound: CC(C)(OC(=O)Nc1ccc2c(c1)N(S(=O)(=O)c1ccc3c(c1)CCO3)C[C@H](CCC(=O)O)O2)C(F)(F)F [Example 6AE, (S)-3-(4-((2,3-dihydrobenzofuran-5-yl)sulfonyl)-6-((((1,1,1-trifluoro-2-methylpropan-2-yl)oxy)carbonyl)amino)-3,4-dihydro-2H-benzo[b][1,4]oxazin-2-yl)propanoic acid]
- IC50: 0.0124 µM

Compound: CC(C)(OC(=O)Nc1ccc2c(c1)N(S(=O)(=O)c1cncc(Br)c1)C[C@H](CCC(=O)O)O2)C(F)(F)F [Example 6BU, 3-[(2S)-4-[(5-bromopyridin-3-yl)sulfonyl]-6-{[(2,2,2-trifluoro-1,1-dimethylethoxy)carbonyl]amino}-3,4-dihydro-2H-1,4-benzoxazin-2-yl]propanoic acid]
- IC50: 0.0109 µM

Compound: CCOc1sc(C(F)(F)F)nc1S(=O)(=O)N1C[C@H](CCC(=O)O)Oc2ccc(NC(=O)OC(C)(C)C(F)(F)F)cc21 [Example 6CE, 3-[(2S)-4-{[5-ethoxy-2-(trifluoromethyl)-1,3-thiazol-4-yl]sulfonyl}-6-{[(2,2,2-trifluoro-1,1-dimethylethoxy)carbonyl]amino}-3,4-dihydro-2H-1,4-benzoxazin-2-yl]propanoic acid]
- IC50: 0.0675 µM

Compound: Cc1cc(S(=O)(=O)N2C[C@H](CCC(=O)O)Oc3ccc(NC(=O)OC(C)(C)C(F)(F)F)cc32)c(F)cc1F [Example 6AW, (S)-3-(4-((2,4-difluoro-5-methylphenyl)sulfonyl)-6-((((1,1,1-trifluoro-2-methylpropan-2-yl)oxy)carbonyl)amino)-3,4-dihydro-2H-benzo[b][1,4]oxazin-2-yl)propanoic acid]
- IC50: 0.00771 µM

Compound: Cc1cc(S(=O)(=O)N2C[C@H](C[C@@H](C(=O)O)C3CC3)Oc3ccc(NC(=O)OC(C)(C)C(F)(F)F)cc32)ccc1F (single isomer, unassigned) [Example 10T, (R or S)-2-cyclopropyl-3-((S)-4-((4-fluoro-3-methylphenyl)sulfonyl)-6-((((1,1,1-trifluoro-2-methylpropan-2-yl)oxy)carbonyl)amino)-3,4-dihydro-2H-benzo[b][1,4]oxazin-2-yl)propanoic acid]
- IC50: 0.016 µM

Compound: COc1cc(S(=O)(=O)N2C[C@H](CCC(=O)O)Oc3ccc(NC(=O)OC4(C(F)(F)F)CCC4)cc32)ccc1F [Example 24B, 3-{(2S)-4-[(4-fluoro-3-methoxyphenyl)sulfonyl]-6-[({[1-(trifluoromethyl)cyclobutyl]oxy}carbonyl)amino]-3,4-dihydro-2H-1,4-benzoxazin-2-yl}propanoic acid]
- IC50: 0.012 µM

Compound: CCc1nc(S(=O)(=O)N2C[C@H](CCC(=O)O)Oc3ccc(NC(=O)OC(C)(C)C(F)(F)F)cc32)c(OCC(F)(F)F)s1 [Example 6CG, 3-[(2S)-4-{[2-ethyl-5-(2,2,2-trifluoroethoxy)-1,3-thiazol-4-yl]sulfonyl}-6-{[(2,2,2-trifluoro-1,1-dimethylethoxy)carbonyl]amino}-3,4-dihydro-2H-1,4-benzoxazin-2-yl]propanoic acid]
- IC50: 0.0229 µM

Compound: CC(C)(OC(=O)Nc1ccc2c(c1)N(S(=O)(=O)c1ccc(F)c(F)c1)C[C@H](CCC(=O)O)O2)C(F)(F)F [Example 6N, (S)-3-(4-((3,4-difluorophenyl)sulfonyl)-6-((((1,1,1-trifluoro-2-methylpropan-2-yl)oxy)carbonyl)amino)-3,4-dihydro-2H-benzo[b][1,4]oxazin-2-yl)propanoic acid]
- IC50: 0.014 µM

Compound: CC(C)(OC(=O)Nc1ccc2c(c1)N(S(=O)(=O)c1cccc(Br)c1)C[C@H](CCC(=O)O)O2)C(F)(F)F [Example 6AA, (S)-3-(4-((3-bromophenyl)sulfonyl)-6-((((1,1,1-trifluoro-2-methylpropan-2-yl)oxy)carbonyl)amino)-3,4-dihydro-2H-benzo[b][1,4]oxazin-2-yl)propanoic acid]
- IC50: 0.006 µM

Compound: Cc1c(Cl)cc(F)cc1S(=O)(=O)N1C[C@H](CCC(=O)O)Oc2ccc(NC(=O)OC(C)(C)C(F)(F)F)cc21 [Example 6AK, (S)-3-(4-((3-chloro-5-fluoro-2-methylphenyl)sulfonyl)-6-((((1,1,1-trifluoro-2-methylpropan-2-yl)oxy)carbonyl)amino)-3,4-dihydro-2H-benzo[b][1,4]oxazin-2-yl)propanoic acid]
- IC50: 0.0111 µM

Compound: Cc1ccc(S(=O)(=O)N2C[C@H]([C@H]3C[C@@H]3C(=O)O)Oc3ccc(NC(=O)OC(C)(C)C(F)(F)F)cc32)cc1 (single isomer, unassigned) [Example 22G, (1S,2S or 1R,2R or 1S,2R or 1R,2S)-2-((S)-4-tosyl-6-((((1,1,1-trifluoro-2-methylpropan-2-yl)oxy)carbonyl)amino)-3,4-dihydro-2H-benzo[b][1,4]oxazin-2-yl)cyclopropanecarboxylic acid]
- IC50: 0.0343 µM

Compound: CCn1cc(S(=O)(=O)N2C[C@H](CCC(=O)O)Oc3ccc(NC(=O)OC(C)(C)C(F)(F)F)cc32)c(OCCO)n1 (stereo in doubt) [Example 6CA, 3-(4-{[1-ethyl-3-(2-hydroxyethoxy)-1H-pyrazol-4-yl]sulfonyl}-6-{[(2,2,2-trifluoro-1,1-dimethylethoxy)carbonyl]amino}-3,4-dihydro-2H-1,4-benzoxazin-2-yl)propanoic acid]
- IC50: 0.0114 µM

Compound: CC(C)(OC(=O)Nc1ccc2c(c1)N(S(=O)(=O)c1ccc(F)c(C(F)(F)F)c1)C[C@H]([C@H]1C[C@H]1C(=O)O)O2)C(F)(F)F [Example 22A, (1R,2S)-2-((S)-4-((4-fluoro-3-(trifluoromethyl)phenyl)sulfonyl)-6-((((1,1,1-trifluoro-2-methylpropan-2-yl)oxy)carbonyl)amino)-3,4-dihydro-2H-benzo[b][1,4]oxazin-2-yl)cyclopropanecarboxylic acid]
- IC50: 0.0224 µM

Compound: COc1cc(S(=O)(=O)N2C[C@H]([C@@H]3C[C@H]3C(=O)O)Oc3ccc(NC(=O)OC(C)(C)C(F)(F)F)cc32)ccc1F (single isomer, unassigned) [Example 22J, (1R,2S or 1R,2R or 1S,2S or 1S,2R)-2-((S)-4-((4-fluoro-3-methoxyphenyl)sulfonyl)-6-((((1,1,1-trifluoro-2-methylpropan-2-yl)oxy)carbonyl)amino)-3,4-dihydro-2H-benzo[b][1,4]oxazin-2-yl)cyclopropanecarboxylic acid]
- IC50: 0.0135 µM

Compound: CC(C)(OC(=O)Nc1ccc2c(c1)N(S(=O)(=O)c1cccc(C(F)(F)F)c1)C[C@H](CC(O)C(=O)O)O2)C(F)(F)F (mixture of isomers) [Example 15, (R and S)-2-hydroxy-3-((S)-6-((((1,1,1-trifluoro-2-methylpropan-2-yl)oxy)carbonyl)amino)-4-((3-(trifluoromethyl)phenyl)sulfonyl)-3,4-dihydro-2H-benzo[b][1,4]oxazin-2-yl)propanoic acid]
- IC50: 0.0181 µM

Compound: CC(C)(OC(=O)Nc1ccc2c(c1)N(S(=O)(=O)c1cncc(C3CC3)c1)C[C@H](CCC(=O)O)O2)C(F)(F)F [Example 6BV, 3-[(2S)-4-[(5-cyclopropylpyridin-3-yl)sulfonyl]-6-{[(2,2,2-trifluoro-1,1-dimethylethoxy)carbonyl]amino}-3,4-dihydro-2H-1,4-benzoxazin-2-yl]propanoic acid]
- IC50: 0.00884 µM
